Source: PubChem BioAssay AID1259407 (Chemical Carcinogenesis Research Information System (CCRIS), 2018)
Activity calls are given as the source filed them. No rule for the calls is given here.

Test system: CCRIS mutagenicity, Ames/micronucleus/aberration tests
Assay: CCRIS mutagenicity studies

Structure (SMILES): COc1cc2c(c3oc(=O)c4c(c13)CCC4=O)[C@@H]1C=CO[C@@H]1O2
- mutagenic call (End Point: IN VITRO MICRONUCLEUS, Test System: AHH-1 CELLS, Metabolic Activation: NONE): active; positive
- mutagenic call (End Point: IN VITRO MICRONUCLEUS, Test System: MCL-5 CELLS, Metabolic Activation: NONE): active; positive
- mutagenic call (Test System: AMES SALMONELLA TYPHIMURIUM, Strain/Indicator: TA98, Metabolic Activation: EPITHELIAL CELL-MEDIATED, AROCLOR 1254, Method: PREINCUBATION): active; positive
- mutagenic call (Test System: AMES SALMONELLA TYPHIMURIUM, Strain/Indicator: TA98, Metabolic Activation: EPITHELIAL CELL-MEDIATED, NADPH, Method: PREINCUBATION): active; positive
- mutagenic call (Test System: AMES SALMONELLA TYPHIMURIUM, Strain/Indicator: TA98, Metabolic Activation: EPITHELIAL CELL-MEDIATED, Method: PREINCUBATION): active; positive
- mutagenic call (Test System: AMES SALMONELLA TYPHIMURIUM, Strain/Indicator: TA98, Metabolic Activation: HAMSTER, LIVER, S-9, Method: MICROSUSPENSION): active; positive
- mutagenic call (Test System: AMES SALMONELLA TYPHIMURIUM, Strain/Indicator: TA98, Metabolic Activation: HAMSTER, LUNG, S-9, Method: MICROSUSPENSION): inactive; negative
- mutagenic call (Test System: AMES SALMONELLA TYPHIMURIUM, Strain/Indicator: TA98, Metabolic Activation: HAMSTER, TRACHEA, S-9, Method: MICROSUSPENSION): active; positive
- mutagenic call (Test System: AMES SALMONELLA TYPHIMURIUM, Strain/Indicator: TA98, Metabolic Activation: HUMAN LIVER, S-9, Method: STANDARD PLATE): active; positive
- mutagenic call (Test System: AMES SALMONELLA TYPHIMURIUM, Strain/Indicator: TA98, Metabolic Activation: HUMAN, LIVER, S-9, Method: STANDARD PLATE): active; positive
- mutagenic call (Test System: AMES SALMONELLA TYPHIMURIUM, Strain/Indicator: TA98, Metabolic Activation: KUPFFER CELL-MEDIATED, AROCLOR 1254, Method: PREINCUBATION): active; positive
- mutagenic call (Test System: AMES SALMONELLA TYPHIMURIUM, Strain/Indicator: TA98, Metabolic Activation: KUPFFER CELL-MEDIATED, NADPH, Method: PREINCUBATION): active; positive
- mutagenic call (Test System: AMES SALMONELLA TYPHIMURIUM, Strain/Indicator: TA98, Metabolic Activation: KUPFFER CELL-MEDIATED, Method: PREINCUBATION): active; positive
- mutagenic call (Test System: AMES SALMONELLA TYPHIMURIUM, Strain/Indicator: TA98, Metabolic Activation: NONE, Method: MICROSUSPENSION): active; positive
- mutagenic call (Test System: AMES SALMONELLA TYPHIMURIUM, Strain/Indicator: TA98, Metabolic Activation: NONE, Method: PREINCUBATION): inactive; negative
- mutagenic call (Test System: AMES SALMONELLA TYPHIMURIUM, Strain/Indicator: TA98, Metabolic Activation: NONE, Method: STANDARD PLATE): active; positive
- mutagenic call (Test System: AMES SALMONELLA TYPHIMURIUM, Strain/Indicator: TA98, Metabolic Activation: PARENCHYMAL CELL-MEDIATED, AROCLOR 1254, Method: PREINCUBATION): active; positive
- mutagenic call (Test System: AMES SALMONELLA TYPHIMURIUM, Strain/Indicator: TA98, Metabolic Activation: PARENCHYMAL CELL-MEDIATED, NADPH, Method: PREINCUBATION): active; positive
- mutagenic call (Test System: AMES SALMONELLA TYPHIMURIUM, Strain/Indicator: TA98, Metabolic Activation: PARENCHYMAL CELL-MEDIATED, Method: PREINCUBATION): inactive; negative
- mutagenic call (Test System: AMES SALMONELLA TYPHIMURIUM, Strain/Indicator: TA98, Metabolic Activation: RABBIT, LIVER, S-9, Method: MICROSUSPENSION): active; positive
- mutagenic call (Test System: AMES SALMONELLA TYPHIMURIUM, Strain/Indicator: TA98, Metabolic Activation: RABBIT, LUNG, S-9, Method: MICROSUSPENSION): active; positive
- mutagenic call (Test System: AMES SALMONELLA TYPHIMURIUM, Strain/Indicator: TA98, Metabolic Activation: RABBIT, TRACHEA, S-9, Method: MICROSUSPENSION): active; positive
- mutagenic call (Test System: AMES SALMONELLA TYPHIMURIUM, Strain/Indicator: TA98, Metabolic Activation: RAT LIVER S-9, DELOR 103, Method: STANDARD PLATE): active; positive
- mutagenic call (Test System: AMES SALMONELLA TYPHIMURIUM, Strain/Indicator: TA98, Metabolic Activation: RAT LIVER S-9, DELOREM 103, Method: STANDARD PLATE): active; positive
- mutagenic call (Test System: AMES SALMONELLA TYPHIMURIUM, Strain/Indicator: TA98, Metabolic Activation: RAT, LIVER, MICROSOMES, PHENOBARBITAL, Method: STANDARD PLATE): active; positive
- mutagenic call (Test System: AMES SALMONELLA TYPHIMURIUM, Strain/Indicator: TA98, Metabolic Activation: RAT, LIVER, S-9, ACRYLAMIDE, Method: STANDARD PLATE): active; positive
- mutagenic call (Test System: AMES SALMONELLA TYPHIMURIUM, Strain/Indicator: TA98, Metabolic Activation: RAT, LIVER, S-9, AROCLOR 1254, Method: PREINCUBATION): active; positive
- mutagenic call (Test System: AMES SALMONELLA TYPHIMURIUM, Strain/Indicator: TA98, Metabolic Activation: RAT, LIVER, S-9, AROCLOR 1254, Method: STANDARD PLATE): active; positive
- mutagenic call (Test System: AMES SALMONELLA TYPHIMURIUM, Strain/Indicator: TA98, Metabolic Activation: RAT, LIVER, S-9, PHENOBARBITAL, Method: STANDARD PLATE): active; positive
- mutagenic call (Test System: AMES SALMONELLA TYPHIMURIUM, Strain/Indicator: TA98, Metabolic Activation: RAT, LIVER, S-9, Method: MICROSUSPENSION): active; positive
- mutagenic call (Test System: AMES SALMONELLA TYPHIMURIUM, Strain/Indicator: TA98, Metabolic Activation: RAT, LUNG, S-9, Method: MICROSUSPENSION): inactive; negative
- mutagenic call (Test System: AMES SALMONELLA TYPHIMURIUM, Strain/Indicator: TA98, Metabolic Activation: RAT, TRACHEA, S-9, Method: MICROSUSPENSION): inactive; negative
- mutagenic call (Test System: AMES SALMONELLA TYPHIMURIUM, Strain/Indicator: TA100, Metabolic Activation: HUMAN LIVER, S-9, Method: STANDARD PLATE): active; positive
- mutagenic call (Test System: AMES SALMONELLA TYPHIMURIUM, Strain/Indicator: TA100, Metabolic Activation: HUMAN, LIVER, S-9, Method: STANDARD PLATE): active; positive
- mutagenic call (Test System: AMES SALMONELLA TYPHIMURIUM, Strain/Indicator: TA100, Metabolic Activation: HUMAN, PLACENTAL MICROSOMES, Method: PREINCUBATION): active; positive
